The subject of one assay is Lactococcus lactis. Description: Inhibitory activity against family of dihydroorotate dehydrogenase 1A (1A DHOD) from Lactococcus lactis at 1 uMolar concentration. On the set-up: scale not given: the % may be the effect or the level left. To be noted: 1 uM.
Assay [1] in a line: Inhibition constant against 1A […] dehydrogenase (1A DHOD) from Lactococcus lactis.
A short description of assay [2]: Dissociation constant against 1A […] dehydrogenase (1A DHOD) from Lactococcus lactis at 25 degrees C pH 8.0.
Assay [3] is described as follows: Inhibition constant against dihydroorotate dehydrogenase 1A (1A DHOD) from Lactococcus lactis.
Assay [4] can be described thus: Dissociation constant against dihydroorotate dehydrogenase 1A (1A DHOD) from Lactococcus lactis at 25 degrees C pH 8.0.

6 molecules from ChEMBL document CHEMBL1134572, “Specific inhibition of a family 1A dihydroorotate dehydrogenase by benzoate pyrimidine analogues” (J Med Chem, 2001) can be followed below.

As usually defined, the Ki is a measure of affinity in units of concentration, obtained from inhibition or displacement. As a reminder, the Kd is the constant that tells how readily two partners part at equilibrium.

For `O=C(O)c1ccc(O)cc1`, the Activity in the assay on Lactococcus lactis was 92%.

`O=C(O)c1ccc(O)cc1O` had an Activity in the assay with Lactococcus lactis of 91%.

On to `O=C(O)c1ccccc1O`, for which the Activity in the assay with Lactococcus lactis is 81%.

In assay [1], `O=C(O)c1ccc(O)c(O)c1` [PROTOCATECHUIC ACID] registered a Ki of 12 µM. The molecule further came in with an Activity in the assay with Lactococcus lactis of 7%. In addition, the affinity in assay [2], expressed as Kd, was 19 µM.

Take `O=C(O)c1cc(O)cc(O)c1` [3,5-DIHYDROXYBENZOIC ACID]: the Ki in assay [3] turned out to be 21 µM. The same molecule showed an Activity with Lactococcus lactis of 6%. For the same molecule, the affinity in assay [4], expressed as Kd, was 18.4 µM.

The molecule `O=C(O)c1ccc(O)nc1` gave an Activity in the assay with Lactococcus lactis of 94%.
